In US8546376B2, “Pharmaceutical compounds” (Almac Discovery Limited, priority 2009, dated 2013):

Tests used:
Assay type in all cases: biochemical
[1] = target: T1, AKT1 (Homo sapiens, UniProt P31749); assay: AKT Kinase Assay (IMAP fluorescent polarisation) vs AKT1; conditions: activated AKT1, FAM Crosstide substrate
T1 construct: purchased SignalChem
Procedure: (§1) Testing of the compounds was performed using an AKT Kinase Assay:
(§2) Activated AKT isoforms 1, 2 and 3 were assayed utilising a 5′ FAM Crosstide (Seq. GRPRTSSFAEG-OH). The extent of kinase phosphorylation was determined by fluorescent polarisation using IMAP progressive binding reagent, which introduces binding beads which allow the reagent to specifically bind to phosphate residues via covalent co-ordination complex bonds.
(§3) iMAP binding solution stops Crosstide/kinase interaction and specifically binds phosphorylated substrates. The degree of phosphorylation is determined by fluorescent polarisation (excitation 485 nm; emission 528 nm) or the reduction in speed of rotation of the excited substrate.
(§4) The following materials were used in the assay: • a) Activated AKT isoforms (SignalChem.) dissolved in Complete Reaction buffer at a pre-determined concentration selected so that the assay was carried out in the linear range. • b) AKT substrate peptide: FAM Crosstide (R7110) Molecular Devices, diluted in complete reaction buffer. • c) iMAP Progressive Screening Express Kit (R8127) Molecular Devices • d) Complete Reaction Buffer containing 0.1% BSA, 10 mM Tris-HCl, 10 mM MgCl2, 0.05% NaN3 and 0.01% phosphate free BSA, 1 mM DTT • e) Progressive Binding Solution containing 75% Buffer A, 25% Buffer B and low volume Binding Reagent which contains the binding entity for the assay • f) ATP diluted in complete reaction buffer • g) Black polystyrene 384 well assay plates (Nunc). • h) Biotek Synergy 4 Hybrid Plate reader.
(§5) 5 μl of test compound was dissolved in DMSO (Sigma Aldrich) and serially diluted in complete reaction buffer to give a fourteen point half log dose response and plated into 384 well black plates. The compound was incubated at room temperature with activated AKT isoform (5 μl) at the pre-determined concentration, for 45 minutes.
(§6) 2.5 μl of ATP solution mixed with 2.5 μl of AKT substrate peptide (FAM Crosstide (R7110) Molecular Devices) were dispensed into each well and the plate centrifuged at 1000 rpm for 20 seconds to ensure homogenous mixing of reagents. The reaction mix was incubated in the dark for one hour at room temperature.
(§7) The kinase reaction was stopped by the addition of Progressive Binding Solution and the mixture allowed to equilibrate for one hour in the dark, at room temperature.
(§8) The fluorescent polarisation generated in each well was determined using a […] Synergy 4 Hybrid plate reader. In brief, each reaction solution was excited at 485 nm with the emission measured at 528 nm in both the parallel and perpendicular pathway.
(§9) The polarisation value generated in each well was calculated by Gen5 software (Biotek) and the % inhibition of kinase activity compared to vehicle control was calculated via GraphPad Prism. IC50 values for each compound were calculated by non-linear regression analysis using Prism software.
(§10) All plates were internally controlled by two methods. Firstly, by calculating the signal:noise ratio; based on kinase polarisation without inhibitor and polarisation generated by complete reaction buffer in the absence of activated kinase. Secondly by determining IC50 values generated by known inhibitors of the AKT isoforms.

[2] = target: T2, AKT2 (Homo sapiens, UniProt P31751); assay: AKT Kinase Assay (IMAP fluorescent polarisation) vs AKT2; conditions: activated AKT2, FAM Crosstide substrate
T2 construct: purchased SignalChem
T2 sequence (P31751 whole entry): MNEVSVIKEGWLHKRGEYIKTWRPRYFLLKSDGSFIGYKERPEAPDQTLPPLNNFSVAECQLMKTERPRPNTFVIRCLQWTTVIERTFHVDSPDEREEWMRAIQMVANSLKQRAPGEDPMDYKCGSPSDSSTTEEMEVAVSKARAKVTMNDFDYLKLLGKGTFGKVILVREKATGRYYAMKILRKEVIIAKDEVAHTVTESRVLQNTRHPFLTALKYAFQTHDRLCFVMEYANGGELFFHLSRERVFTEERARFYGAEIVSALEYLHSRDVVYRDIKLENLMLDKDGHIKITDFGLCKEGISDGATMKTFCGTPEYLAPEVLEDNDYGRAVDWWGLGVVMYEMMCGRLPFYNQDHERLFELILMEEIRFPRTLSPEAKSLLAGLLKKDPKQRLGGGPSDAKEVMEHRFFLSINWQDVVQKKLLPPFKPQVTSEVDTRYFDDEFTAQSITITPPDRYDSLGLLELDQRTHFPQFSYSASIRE
Procedure: as §1, §2, §3, §4, §5, §6, §7, §8, §9, §10

[3] = target: T3, AKT3 (Homo sapiens, UniProt Q9Y243); assay: AKT Kinase Assay (IMAP fluorescent polarisation) vs AKT3; conditions: activated AKT3, FAM Crosstide substrate
T3 construct: purchased SignalChem
T3 sequence (Q9Y243 whole entry): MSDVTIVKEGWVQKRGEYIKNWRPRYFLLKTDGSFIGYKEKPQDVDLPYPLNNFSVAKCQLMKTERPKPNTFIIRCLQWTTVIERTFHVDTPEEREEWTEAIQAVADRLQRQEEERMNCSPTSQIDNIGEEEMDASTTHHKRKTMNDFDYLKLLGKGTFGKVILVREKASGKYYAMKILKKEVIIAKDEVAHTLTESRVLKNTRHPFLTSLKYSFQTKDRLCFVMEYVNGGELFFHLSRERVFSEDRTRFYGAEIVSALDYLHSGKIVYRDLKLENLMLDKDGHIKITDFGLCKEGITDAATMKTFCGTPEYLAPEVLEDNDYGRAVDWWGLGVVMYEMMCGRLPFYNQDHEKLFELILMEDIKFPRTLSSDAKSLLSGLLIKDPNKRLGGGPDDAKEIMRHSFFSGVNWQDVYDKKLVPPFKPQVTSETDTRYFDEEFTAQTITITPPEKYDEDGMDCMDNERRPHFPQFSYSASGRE
Procedure: as §1, §2, §3, §4, §5, §6, §7, §8, §9, §10

T1 sequence (P31749 whole entry): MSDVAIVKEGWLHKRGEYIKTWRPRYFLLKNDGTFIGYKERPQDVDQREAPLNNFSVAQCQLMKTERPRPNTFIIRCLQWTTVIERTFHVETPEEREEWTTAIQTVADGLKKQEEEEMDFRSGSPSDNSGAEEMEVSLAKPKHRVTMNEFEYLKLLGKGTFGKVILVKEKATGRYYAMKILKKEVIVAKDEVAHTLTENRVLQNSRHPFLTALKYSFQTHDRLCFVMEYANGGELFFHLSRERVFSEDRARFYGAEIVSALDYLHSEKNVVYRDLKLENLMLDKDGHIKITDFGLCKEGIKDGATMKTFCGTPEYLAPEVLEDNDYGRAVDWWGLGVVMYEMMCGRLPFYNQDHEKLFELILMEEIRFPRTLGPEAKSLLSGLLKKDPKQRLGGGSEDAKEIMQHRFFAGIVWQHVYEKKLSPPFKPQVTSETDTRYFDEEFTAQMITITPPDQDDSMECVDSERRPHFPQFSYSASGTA

Compound | IC50 [1] | IC50 [2] | IC50 [3]
COc1cc2c(=O)c(-c3ccc(C4(N)CCC4)cc3)c(-c3ccccc3)oc2cc1C [Example 6, 3-[4-(1-Amino-cyclobutyl)-phenyl]-6-methoxy-7-methyl-2-phenyl-chromen-4-one] | > 10 µM | 1 to 10 µM | > 10 µM
COc1cc2oc(-c3ccccc3)c(-c3ccc(C4(N)CCC4)cc3)c(=O)c2cc1C [Example 7, 3-[4-(1-Amino-cyclobutyl)-phenyl]-7-methoxy-6-methyl-2-phenyl-chromen-4-one] | 1 to 10 µM | 1 to 10 µM | > 10 µM
NC1(c2ccc(-c3c(-c4ccccc4)oc4cc5c(cc4c3=O)OCCO5)cc2)CCC1 [Example 8, 7-[4-(1-Amino-cyclobutyl)-phenyl]-6-Phenyl-2,3-dihydro-1,4,5-trioxa-anthracen-8-one] | 1 to 10 µM | 1 to 10 µM | > 10 µM
COc1cc2oc(-c3ccccc3)c(-c3ccc(C4(N)CCC4)cc3)c(=O)c2cc1C(N)=O [Example 10, 3-[4-(1-Amino-cyclobutyl)-phenyl]-7-methoxy-4-oxo-2-phenyl-4H-chromene-6-carboxylic acid amide] | 1 to 10 µM | ≤ 1 µM | 1 to 10 µM
COc1cc2oc(-c3ccccc3)c(-c3ccc(C4(N)CCC4)cc3)c(=O)c2cc1C#N [Example 11, 3-[4-(1-Amino-cyclobutyl)-phenyl]-7-methoxy-4-oxo-2-phenyl-4H-chromene-6-carbonitrile] | 1 to 10 µM | 1 to 10 µM | > 10 µM
COc1cc2oc(-c3ccccc3)c(-c3ccc(C4(N)CCC4)cc3)c(=O)c2cc1OC [Example 15, 3-[4-(1-Amino-cyclobutyl)-phenyl]-6,7-dimethoxy-2-phenyl-chromen-4-one] | 1 to 10 µM | ≤ 1 µM | 1 to 10 µM
NC1(c2ccc(-c3c(-c4ccccc4)oc4cc(-c5ccn[nH]5)ccc4c3=O)cc2)CCC1 [Example 17] | > 10 µM | 1 to 10 µM | > 10 µM
NC1(c2ccc(-c3c(-c4ccccc4)oc4ccc(-n5ccnc5)cc4c3=O)cc2)CCC1 [Example 22, 3-[4-(1-Amino-cyclobutyl)-phenyl]-6-imidazol-1-yl-2-phenyl-chromen-4-one] | 1 to 10 µM | 1 to 10 µM | > 10 µM
NC1(c2ccc(-c3c(-c4ccccc4)oc4cc(OC(F)(F)F)ccc4c3=O)cc2)CCC1 [Example 24, 3-[4-(1-Amino-cyclobutyl)-phenyl]-2-phenyl-7-trifluoromethoxy-chromen-4-one] | > 10 µM | 1 to 10 µM | > 10 µM
COc1cc2c(=O)c(-c3ccc(C4(N)CCC4)cc3)c(-c3ccccc3)oc2cc1Br [Example 26, 3-[4-(1-Amino-cyclobutyl)-phenyl]-7-bromo-6-methoxy-2-phenyl-chromen-4-one] | > 10 µM | 1 to 10 µM | > 10 µM
COc1cc2oc(-c3ccccc3)c(-c3ccc(C4(N)CCC4)cc3)c(=O)c2cc1Br [Example 27, 3-[4-(1-Amino-cyclobutyl)-phenyl]-6-bromo-7-methoxy-2-phenyl-chromen-4-one] | > 10 µM | 1 to 10 µM | > 10 µM
COc1cc2c(=O)c(-c3ccc(C4(N)CCC4)cc3)c(-c3ccccc3)oc2cc1-c1ccn[nH]1 [Example 28, 3-[4-(1-Amino-cyclobutyl)-phenyl]-6-methoxy-2-phenyl-7-(2H-pyrazol-3yl)-chromen-4-one] | > 10 µM | 1 to 10 µM | > 10 µM
COc1cc2c(=O)c(-c3ccc(C4(N)CCC4)cc3)c(-c3ccccc3)oc2cc1C(N)=O [Example 29, 3-[4-(1-Amino-cyclobutyl)-phenyl]-6-methoxy-4-oxo-2-phenyl-4H-chromene-7-carboxylic acid amide] | 1 to 10 µM | ≤ 1 µM | > 10 µM
COc1cc2c(=O)c(-c3ccc(C4(N)CCC4)cc3)c(-c3ccccc3)oc2cc1C#N [Example 30, 3-[4-(1-Amino-cyclobutyl)-phenyl]-6-methoxy-4-oxo-2-phenyl-4H-chromene-7-carbonitrile] | > 10 µM | 1 to 10 µM | 1 to 10 µM

The next lines start with the values.

IC50 [1] | IC50 [2] | IC50 [3] | Compound
1 to 10 µM | 1 to 10 µM | > 10 µM | NC1(c2ccc(-c3c(-c4ccccc4)oc4ccc(F)cc4c3=O)cc2)CCC1 [Example 1, 3-[4-(1-Amino-cyclobutyl)-phenyl]-6-fluoro-2-phenyl-chromen-4-one]
≤ 1 µM | 1 to 10 µM | > 10 µM | NC1(c2ccc(-c3c(-c4ccccc4)oc4c(F)cccc4c3=O)cc2)CCC1 [Example 2, 3-[4-(1-Amino-cyclobutyl)-phenyl]-8-fluoro-2-phenyl-chromen-4-one]
1 to 10 µM | 1 to 10 µM | > 10 µM | NC1(c2ccc(-c3c(-c4ccccc4)oc4cccc(F)c4c3=O)cc2)CCC1 [Example 3, 3-[4-(1-Amino-cyclobutyl)-phenyl]-5-fluoro-2-phenyl-chromen-4-one]
1 to 10 µM | 1 to 10 µM | > 10 µM | COc1ccc2oc(-c3ccccc3)c(-c3ccc(C4(N)CCC4)cc3)c(=O)c2c1 [Example 5, 3-[4-(1-Amino-cyclobutyl)-phenyl]-6-methoxy-2-phenyl-chromen-4-one]
≤ 1 µM | ≤ 1 µM | 1 to 10 µM | COc1ccc2c(=O)c(-c3ccc(C4(N)CCC4)cc3)c(-c3ccccc3)oc2c1Br [Example 9, 3-[4-(1-Amino-cyclobutyl)-phenyl]-8-bromo-7-methoxy-2-phenyl-chromen-4-one]
1 to 10 µM | ≤ 1 µM | 1 to 10 µM | COc1ccc2c(=O)c(-c3ccc(C4(N)CCC4)cc3)c(-c3ccccc3)oc2c1C#N [Example 12, 3-[4-(1-Amino-cyclobutyl)-phenyl]-7-methoxy-4-oxo-2-phenyl-4H-chromene-8-carbonitrile]
1 to 10 µM | 1 to 10 µM | > 10 µM | NC1(c2ccc(-c3c(-c4ccccc4)oc4cc(Br)ccc4c3=O)cc2)CCC1 [Example 13, 3-[4-(1-Amino-cyclobutyl)-phenyl]-2-phenyl-7-bromo-chromen-4-one]
1 to 10 µM | 1 to 10 µM | > 10 µM | COc1ccc2c(=O)c(-c3ccc(C4(N)CCC4)cc3)c(-c3ccccc3)oc2c1 [Example 14]
1 to 10 µM | 1 to 10 µM | 1 to 10 µM | COc1cccc2c(=O)c(-c3ccc(C4(N)CCC4)cc3)c(-c3ccccc3)oc12 [Example 16, 3-[4-(1-Amino-cyclobutyl)-phenyl]-8-methoxy-2-phenyl-chromen-4-one]
> 10 µM | 1 to 10 µM | > 10 µM | NC(=O)c1ccc2c(=O)c(-c3ccc(C4(N)CCC4)cc3)c(-c3ccccc3)oc2c1 [Example 18, 3-[4-(1-Amino-cyclobutyl)-phenyl]-4-oxo-2-phenyl-4H-chromene-7-carboxylic acid amide]
1 to 10 µM | 1 to 10 µM | 1 to 10 µM | NC1(c2ccc(-c3c(-c4ccccc4)oc4ccc(Br)cc4c3=O)cc2)CCC1 [Example 19, 3-[4-(1-Amino-cyclobutyl)-phenyl]-6-bromo-2-phenyl-chromen-4-one]
1 to 10 µM | 1 to 10 µM | > 10 µM | N#Cc1ccc2oc(-c3ccccc3)c(-c3ccc(C4(N)CCC4)cc3)c(=O)c2c1 [Example 21, 3-[4-(1-Amino-cyclobutyl)-phenyl]-4-oxo-2-phenyl-4H-chromene-6-carbonitrile]
1 to 10 µM | 1 to 10 µM | > 10 µM | NC1(c2ccc(-c3c(-c4ccccc4)oc4cc(F)c(F)cc4c3=O)cc2)CCC1 [Example 23, 3-[4-(1-Amino-cyclobutyl)-phenyl]-6,7-difluoro-2-phenyl-chromen-4-one]
> 10 µM | 1 to 10 µM | > 10 µM | NC1(c2ccc(-c3c(-c4ccccc4)oc4ccc(OC(F)(F)F)cc4c3=O)cc2)CCC1 [Example 25, 3-[4-(1-Amino-cyclobutyl)-phenyl]-2-phenyl-6-trifluoromethoxy-chromen-4-one]
